# Results published in patent US9781938B2, “Method for eliciting plant immune responses by seed priming of heat-treated Bacillus culture solution” (KOREA RESEARCH INSTITUTE OF BIOSCIENCE AND BIOTECHNOLOGY, priority 2012, dated 2017).
# Key:
# Format in all cases: in vivo
# PR2 gene = test: qRT-PCR expression of plant disease resistance-related gene PR2 in cucumber leaf after pathogen inoculation; details: after 24 hours
# Method: (§1) In order to measure an expression amount of a plant disease resistance-related gene, pathogen was inoculated to a cucumber, and sampling was made 0, 3 or 24 hours later. Total RNA was isolated from the sampled cucumber leaf by using RNeasy Plus Mini Kit (50). cDNA was synthesized from 2 μg of the RNA by using an oligo-dT primer and MMLV-RT (Moloney murine leukemia virus reverse transcriptase, Enzynomics, KOREA). cDNA was then used for qRT-PCR (quantitative Reverse Transcriptase Polymerase Chain Reaction) based on Chromo4 Real Time PCR system (BIO-RAD) by using each primer for the genes of LOX, PR2 and ETR that are known to be related to resistance to diseases. LOX primer is as follows; forward direction: 5′-[…]-3′ (SEQ ID NO: 1) and reverse direction: 5′-[…]-3′ (SEQ ID NO: 2), PR2 primer is as follows; forward direction: 5′-[…]-3′ (SEQ ID NO: 3) and reverse direction: 5′-[…]-3′ (SEQ ID NO: 4), and ETR primer is as follows; forward direction: 5′-[…]-3′ (SEQ ID NO: 5) and reverse direction: 5′-GCCAAAGACCACTGCCACA-3′ (SEQ ID NO: 6).
# LOX gene = test: qRT-PCR expression of plant disease resistance-related gene LOX in cucumber leaf after pathogen inoculation; details: BTH treatment group; time not stated
# Method: as §1
# cucumber = test: Establishment of seed priming conditions using BTH: stem weight to see growth inhibition
# Method: (§2) Regarding the priming of a cucumber seed, to establish conditions for seed treatment at which induced systemic resistance against is induced in a plant without inhibiting plant growth, a cucumber seed was treated with BTH (benzothiadiazole), i.e., a potent substance for eliciting resistance, and it was cultivated in a rectangular culture solution dish (125×125 mm) and a pot for determination. The cucumber seed (Bakbong Dadagi, manufactured by Nongwoo Bio, Korea) was subjected to surface sterilization for 5 minutes using 5% NaOCl and, after rinsing 5 times with sterilized water, died on a filter paper. The sterilized seed was soaked for 0, 6, 12, or 18 hours in BTH solution each at 0.1 μM, 10 μM, or 1 mM. 0 Hour means that the seed was dried immediately after soaking. The soaked seed was dried for 12 hours on a culture dish overlaid with a sterilized filter paper. The seed after priming was sown in a pot filled with soil for horticulture (Punong Co., Ltd., Korea) and also in a rectangular culture dish containing distilled water-agar medium (Water agar; WA, plant agar (8 g/L)). […] Seven days later, any symptom of disease was determined, and the degree of symptom was measured with scale of from 1 to 5. […] Stem weight was measured simultaneously with determination of the degree of symptom to see if there is any growth inhibition.
# [1] = system: Psuedomonas syringae pv. lachrymans; test: Establishment of seed priming conditions using BTH: induced systemic resistance in cucumber (culture dish and pot), degree of symptom; details: cucumber seed soaked in 1 mM BTH for 12 hours and 18 hours; in vitro and in planta
# Method: as §2
structure (smiles),measurement,setting,value
"CSC(=O)c1cccc2nnsc12 [BTH, benzo(1,2,3)-thiadiazole-7-carbothioic acid S-methyl ester]",PR2 expression level,PR2 gene,1.7
same,PR2 expression level relative to water (0.4),PR2 gene; vs negative control water,4.3 times
same,expression level of LOX gene versus negative control,LOX gene,close to that of a negative control
same,growth inhibition (stem weight),cucumber; seed soaked in 1 mM BTH for 12 hours,no growth inhibition
same,growth inhibition (stem weight),"cucumber; seed treated with 1 mM BTH for 18 hours, compared to sterilized water control",growth inhibition is shown with a statistic significance
same,eliciting induced systemic resistance,[1],most effective
